Legend:
[1] = test system: MRC-5 (human fetal lung fibroblasts, non-tumor); assay: MTT proliferation assay, MRC-5; type: cell-based; conditions: MRC5, 72 h treatment
Procedure: (§1) The effect of the new synthesized compounds was tested on five human tumor cell lines, HeLa (human cervical adenocarcinoma; from ATCC), CaCo-2 (human colorectal adenocarcinoma), HL-60 (acute promyelocytic leukemia), HuT78 (T-cell lymphoma) and THP-1 (acute monocytic leukemia), and on one non-tumor cell line, MRC-5 (human fetal lung fibroblasts). The MRC-5 cells were used between 24 and 26 passages. The cells were cultured in two different types of media: DMEM (Gibco, EU) and RPMI 1640 (Gibco, EU). Both media were supplemented with 2 mM glutamine, fetal bovine serum (10%; heat inactivated) and antibiotics (100 U penicillin and 0.1 mg streptomycin). RPMI 1640 was additionally supplemented with 10 mM HEPES and 1 mM sodium pyruvate. The cells growing in a monolayer were cultured in DMEM, while the cells growing in suspension were cultured in RPMI 1640. The cells were grown in humidified atmosphere under the conditions of 37 °C/5% CO2 gas in the CO2 incubator (IGO 150 CELLlife^TM, JOUAN, Thermo Fisher Scientific, Waltham, MA, USA).
(§2) Growth-inhibitory activity was assessed using a slightly modified procedure based on the National Cancer Institute’s protocol. Briefly, the cells were seeded in 96-well microtiter plates and incubated for 24 h. They were then treated with 10^−7 to 10^−4 M concentrations of the tested compounds for an additional 72 h. After the treatment period, the effects of the tested compounds on the growth rate of the cells were examined using the MTT assay. Absorbance was measured at 595 nm using a microplate reader. […] The selectivity index was calculated according to the following formula: SI=IC50 value of normal cell line/IC50 value of cancer cell line
(§3) The effect of each concentration was analyzed by plotting the logarithm of the concentration of the evaluated compound against the corresponding percentage inhibition value using least squares.

[2] = test system: Hut78 (T-cell lymphoma); assay: MTT proliferation assay, HuT78; type: cell-based, human; conditions: Homo sapiens, HuT78; 72 h treatment, MTT
Procedure: as §1, §2, §3

[3] = test system: HL-60 (acute promyelocytic leukemia); assay: MTT proliferation assay, HL-60; type: cell-based; conditions: Homo sapiens, 72 h treatment
Procedure: as §1, §2, §3

[4] = test system: THP-1 (acute monocytic leukemia); assay: MTT proliferation assay, THP-1; type: cell-based, human; conditions: Homo sapiens, THP-1; 72 h treatment, MTT
Procedure: as §1, §2, §3

[5] = test system: HeLa (human cervical adenocarcinoma); assay: MTT proliferation assay, HeLa; type: cell-based; conditions: 72 h treatment
Procedure: as §1, §2, §3

[6] = test system: CaCo-2 (human colorectal adenocarcinoma); assay: MTT proliferation assay, CaCo-2; type: cell-based; conditions: 72 h treatment
Procedure: as §1, §2, §3

| SMILES | IC50 [1] [µM] | IC50 [2] [µM] | IC50 [3] [µM] | IC50 [4] [µM] | IC50 [5] [µM] | melting point [°C] | IC50 [6] [µM] |
| --- | --- | --- | --- | --- | --- | --- | --- |
| O=c1[nH]cc(F)c(=O)[nH]1 [Compound 5-FU, 5-fluorouracil, reference compound] | 54.1 | > 100 | > 100 | 76.4 | – | – | – |
| Clc1ccc2c(-n3cc(COc4ccc(-c5nc6ccccc6[nH]5)cc4)nn3)ccnc2c1 [Compound 9a, 4-(4-{[4-(1H-benzo[d]imidazol-2-yl)phenoxy]methyl}-1H-1,2,3-triazol-1-yl)-7-chloroquinoline] | > 100 | 100 | > 100 | > 100 | > 100 | 143 to 145 | > 100 |
| Clc1ccc2[nH]c(-c3ccc(OCc4cn(-c5ccnc6cc(Cl)ccc56)nn4)cc3)nc2c1 [Compound 9b, 7-chloro-4-(4-{[4-(5-chloro-1H-benzo[d]imidazol-2-yl)phenoxy]methyl}-1H-1,2,3-triazol-1-yl)quinoline] | 100 | 92.9 ± 4.3 | > 100 | > 100 | 94.1 | 168 to 170 | > 100 |
| Cl.Cl.Cl.N=C(N)c1ccc2[nH]c(-c3ccc(OCc4cn(-c5ccnc6cc(Cl)ccc56)nn4)cc3)nc2c1 [Compound 9d, 2-(4-{[1-(7-chloroquinolin-4-yl)-1H-1,2,3-triazol-4-yl]methoxy}phenyl)-1H-benzo[d]imidazol-5-carboximidamide trihydrochloride] | > 100 | 2.52 | > 100 | > 100 | > 100 | 240 to 242 | > 100 |
| CCCNC(=N)c1ccc2[nH]c(-c3ccc(OCc4cn(-c5ccnc6cc(Cl)ccc56)nn4)cc3)nc2c1.Cl.Cl.Cl [Compound 9e, 2-(4-{[1-(7-chloroquinolin-4-yl)-1H-1,2,3-triazol-4-yl]methoxy}phenyl)-N-propyl-1H-benzo[d]imidazol-5-carboximidamide trihydrochloride] | > 100 | 10.2 | 98.3 | > 100 | > 100 | 228 to 230 | > 100 |
| Clc1ccc2c(-n3cc(COc4ccc(-c5nc6ccccc6[nH]5)cc4Br)nn3)ccnc2c1 [Compound 10a, 4-(4-{[4-(1H-benzo[d]imidazol-2-yl)-2-bromophenoxy]methyl}-1H-1,2,3-triazol-1-yl)-7-chloroquinoline] | 52.1 | 5.88 | 76.1 | 9.6 | 10 | 252 to 254 | 63.8 |
| Clc1ccc2[nH]c(-c3ccc(OCc4cn(-c5ccnc6cc(Cl)ccc56)nn4)c(Br)c3)nc2c1 [Compound 10b, 4-(4-{[2-bromo-4-(5-chloro-1H-benzo[d]imidazol-2-yl)phenoxy]methyl}-1H-1,2,3-triazol-1-yl)-7-chloroquinoline] | > 100 | 6.43 | 55.2 | 10.6 | 8.11 | – | 10.9 |
| COc1ccc2[nH]c(-c3ccc(OCc4cn(-c5ccnc6cc(Cl)ccc56)nn4)c(Br)c3)nc2c1 [Compound 10c, 4-(4-{[2-bromo-4-(5-methoxy-1H-benzo[d]imidazol-2-yl)phenoxy]methyl}-1H-1,2,3-triazol-1-yl)-7-chloroquinoline] | 8.54 | 3.89 | 18.2 | 6.23 | 9.86 | 170 to 172 | 9.92 |
| Cl.Cl.Cl.N=C(N)c1ccc2[nH]c(-c3ccc(OCc4cn(-c5ccnc6cc(Cl)ccc56)nn4)c(Br)c3)nc2c1 [Compound 10d, 2-(3-bromo-4-{[1-(7-chloroquinolin-4-yl)-1H-1,2,3-triazol-4-yl]methoxy}phenyl)-1H-benzo[d]imidazol-5-carboximidamide trihydrochloride] | > 100 | > 100 | > 100 | > 100 | > 100 | 200 to 202 | > 100 |
| Clc1ccc2c(NCCn3cc(COc4ccc(-c5nc6ccccc6[nH]5)cc4)nn3)ccnc2c1 [Compound 14a, N-[2-(4-{[4-(1H-benzo[d]midazole-2-yl)phenoxy]methyl}-1H-1,2,3-triazol-1-yl)ethyl]-7-chloroquinolin-4-amine] | > 100 | > 100 | > 100 | > 100 | > 100 | 221 to 223 | > 100 |
| Clc1ccc2[nH]c(-c3ccc(OCc4cn(CCNc5ccnc6cc(Cl)ccc56)nn4)cc3)nc2c1 [Compound 14b, 7-chloro-N-[2-(4-{[4-(5-chloro-1H-benzo[d]imidazol-2-yl)phenoxy]methyl}-1H-1,2,3-triazol-1-yl)ethyl]quinolin-4-amine] | > 100 | > 100 | > 100 | > 100 | > 100 | 213 to 215 | > 100 |
| COc1ccc2[nH]c(-c3ccc(OCc4cn(CCNc5ccnc6cc(Cl)ccc56)nn4)cc3)nc2c1 [Compound 14c, 7-chloro-N-[2-(4-{[4-(5-methoxy-1H-benzo[d]imidazol-2-yl)phenoxy]methyl}-1H-1,2,3-triazol-1-yl)ethyl]quinolin-4-amine] | > 100 | > 100 | > 100 | 7.31 | > 100 | 150 to 152 | > 100 |
| Cl.Cl.Cl.N=C(N)c1ccc2[nH]c(-c3ccc(OCc4cn(CCNc5ccnc6cc(Cl)ccc56)nn4)cc3)nc2c1 [Compound 14d, 2-{4-[(1-{2-[(7-chloroquinolin-4-yl)amino]ethyl}-1H-1,2,3-triazol-4-yl)methoxy]phenyl}-1H-benzo[d]imidazol-5-carboximidamide trihydrochloride] | > 100 | 10.5 | > 100 | > 100 | > 100 | 227 to 229 | > 100 |
| Clc1ccc2c(NCCn3cc(COc4ccc(-c5nc6ccccc6[nH]5)cc4Br)nn3)ccnc2c1 [Compound 15a, N-[2-(4-{[4-(1H-benzo[d]imidazol-2-yl)-2-bromophenoxy]methyl}-1H-1,2,3-triazol-1-yl)ethyl]-7-chloroquinolin-4-amine] | > 100 | 7.88 | 11.6 | 4.66 | > 100 | 155 to 157 | > 100 |
| Clc1ccc2[nH]c(-c3ccc(OCc4cn(CCNc5ccnc6cc(Cl)ccc56)nn4)c(Br)c3)nc2c1 [Compound 15b, N-[2-(4-{[2-bromo-4-(5-chloro-1H-benzo[d]imidazol-2-yl)phenoxy]methyl}-1H-1,2,3-triazol-1-yl)ethyl]-7-chloroquinolin-4-amine] | > 100 | 4.91 | 1.24 | 2.06 | > 100 | 100 to 102 | > 100 |

Source: PMC10574761, “Novel 1,2,3-Triazole-Containing Quinoline–Benzimidazole Hybrids: Synthesis, Antiproliferative Activity, In Silico ADME Predictions, and Docking” (Molecules, 2023)
